Test results from PubChem BioAssay (NCI).
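In this assay, cells in 96-well plates receive the compound at five concentrations for 48 hours. Endpoints are linearly interpolated between the surrounding concentrations. TGI: concentration producing complete growth inhibition.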 Where a SMILES comes first, the peptide text is derived from it. [ ]: non-standard residue; d: D form. The star is where a group is joined. NMeF = CN[CH](Cc1ccccc1)C(=O)O; NMeV = CN[CH](C(=O)O)C(C)C; Boc = CC(C)(C)OC(=O)*

Legend:
Assay in all cases: NCI tumour cell line growth inhibition, 48 h
NCI-H522 lung = test system: NCI-H522 lung
TK-10 renal = test system: TK-10 renal
A549 NSCLC = test system: A549 NSCLC
UO-31 renal = test system: UO-31 renal
M14 melanoma = test system: M14 melanoma
SK-MEL-28 melanoma = test system: SK-MEL-28 melanoma
LOX IMVI melanoma = test system: LOX IMVI melanoma
KM20L2 colon = test system: KM20L2 colon
NCI-H460 lung = test system: NCI-H460 lung
HOP-62 NSCLC = test system: HOP-62 NSCLC
EKVX NSCLC = test system: EKVX NSCLC
CCRF-CEM leukemia = test system: CCRF-CEM leukemia
DMS 114 small cell lung = test system: DMS 114 small cell lung
HCT-15 colon = test system: HCT-15 colon
SNB-19 CNS = test system: SNB-19 CNS
LXFL 529 NSCLC = test system: LXFL 529 NSCLC
RPMI-8226 leukemia = test system: RPMI-8226 leukemia
MOLT-4 leukemia = test system: MOLT-4 leukemia
COLO 205 colon = test system: COLO 205 colon
NCI-H226 lung = test system: NCI-H226 lung
SF-539 CNS = test system: SF-539 CNS
M19-MEL melanoma = test system: M19-MEL melanoma
HCT-116 colon = test system: HCT-116 colon
UACC-257 melanoma = test system: UACC-257 melanoma
HL-60(TB) leukemia = test system: HL-60(TB) leukemia
DMS 273 small cell lung = test system: DMS 273 small cell lung
786-0 renal = test system: 786-0 renal
U251 CNS = test system: U251 CNS
SR leukemia = test system: SR leukemia
UACC-62 melanoma = test system: UACC-62 melanoma
SN12C renal = test system: SN12C renal
NCI-H23 lung = test system: NCI-H23 lung
K-562 leukemia = test system: K-562 leukemia
HCC-2998 colon = test system: HCC-2998 colon
SF-295 CNS = test system: SF-295 CNS
HT29 colon = test system: HT29 colon
OVCAR-3 ovarian = test system: OVCAR-3 ovarian
ACHN renal = test system: ACHN renal
SF-268 CNS = test system: SF-268 CNS
SK-MEL-5 melanoma = test system: SK-MEL-5 melanoma
MALME-3M melanoma = test system: MALME-3M melanoma
RXF 393 renal = test system: RXF 393 renal
KM12 colon = test system: KM12 colon
XF 498 CNS = test system: XF 498 CNS
IGROV1 ovarian = test system: IGROV1 ovarian
OVCAR-8 ovarian = test system: OVCAR-8 ovarian
SW-620 colon = test system: SW-620 colon
SNB-78 CNS = test system: SNB-78 CNS
SNB-75 CNS = test system: SNB-75 CNS
DLD-1 colon = test system: DLD-1 colon
HOP-18 NSCLC = test system: HOP-18 NSCLC
HOP-92 NSCLC = test system: HOP-92 NSCLC
SK-OV-3 ovarian = test system: SK-OV-3 ovarian
OVCAR-5 ovarian = test system: OVCAR-5 ovarian
SK-MEL-2 melanoma = test system: SK-MEL-2 melanoma
CAKI-1 renal = test system: CAKI-1 renal
A498 renal = test system: A498 renal
OVCAR-4 ovarian = test system: OVCAR-4 ovarian

Measured: TGI

CC(C)C(NC(=O)OC(C)(C)C)C(=O)N(C)C(Cc1ccccc1)C(=O)N(C)C(C(=O)N(C)C(C(=O)O)C(C)C)C(C)C (stereo unspecified) (Boc-V[NMeF][NMeV][NMeV]-OH; configuration not given here)
not listed: SNB-78 CNS | SNB-75 CNS | DLD-1 colon | HOP-18 NSCLC | HOP-92 NSCLC | SK-OV-3 ovarian | OVCAR-5 ovarian | SK-MEL-2 melanoma | CAKI-1 renal | A498 renal | OVCAR-4 ovarian
> 100 µM: all other assays above

N#CC(C#N)=c1ccc(=C2N3CCCC3CN2C23CC4CC(CC(C4)C2)C3)cc1 (stereo unspecified)
78.8 µM: SNB-75 CNS
not listed: XF 498 CNS | CAKI-1 renal | A498 renal | OVCAR-4 ovarian
> 100 µM: all other assays above

O=C1C=C(Nc2ccccc2C(=O)c2ccccc2)c2ccccc2C1=O
33.2 µM: M19-MEL melanoma
27.9 µM: UACC-257 melanoma
55.9 µM: NCI-H522 lung
not listed: TK-10 renal | LOX IMVI melanoma | CCRF-CEM leukemia | MOLT-4 leukemia | HL-60(TB) leukemia | K-562 leukemia | SK-MEL-5 melanoma | XF 498 CNS
> 100 µM: all other assays above
